From PMC8709997, “Long-term memory T cells as preventive anticancer immunity elicited by TuA-derived heteroclitic peptides” (Journal of Translational Medicine, 2021)
Values joined by “and” are separate entries in the source; they are usually repeats but may differ in a detail not shown here. Identical values can stand only once.

Experiments:
B16F10 cells = assay: Preventive immunization and B16 tumor challenge; format: in vivo, C57BL/6 mice
Protocol: (§1) C57BL/6 (H-2-Db) female mice, 8 weeks old, were purchased from Harlan (Udine, Italy). All animals were housed at the Animal Facility of the Istituto Nazionale Tumori “Pascale” (Naples, Italy). Mice were housed in number of 2–3 per cage and maintained in a conventional facility on a 12 h light:12 h dark cycle (lights on at 7:00 a.m.) in a temperature-controlled room (22 ± 2 °C) and with food and water ad libitum at all times. The experimental protocols were in compliance with the European Communities Council directive (86/609/EEC).
(§2) Mouse melanoma B16F10 (ATCC, CRL-6323) cells were cultured in DMEM medium supplemented with 10% heat inactivated FBS, 100 U/ml penicillin and […] streptomycin (Invitrogen, Carlsbad, CA) at 37 °C with 5% CO2. Cells were tested for mycoplasma before inoculation in mice (ATCC®, 30-1012 K™). Mouse lung TC-1 tumor cells expressing HPV16 E7 protein (ATCC, CRL-2493), were cultured in RPMI medium supplemented with 10% heat inactivated FBS, 100 U/ml penicillin and […] streptomycin (Invitrogen, Carlsbad, CA), HEPES 10 mM, MEM 0.1 mM and Na Piruvate 1 mM at 37 °C with 5% CO2.
(§3) B16F10 and TC1 cells were harvested in exponential growth phase by trypsinization and washed twice with ice-cold PBS. C57BL/6 mice were subcutaneously injected with 5 × 10^4 and 1 × 10^5 cells/mouse of B16F10 or TC1 respectively on the right back flank. A cell aliquot (200μL) containing 1 × 10^6 cells was loaded in 21G syringes for intra-splenic injection. The tumor size was measured and documented every two days with a caliper, starting on day 7, and calculated using the formula (AxB^2)/2 (A as the largest and B is the smallest diameter of tumor). Tumor growth was documented as mean tumor size with standard error. To record the survival of the tumor-bearing mice, either natural death or a tumor diameter greater than 1500 mm^3 leading to death was counted as death.
(§4) Cyclophosphamide (CTX) (Endoxan®, Baxter) (10 mg/Kg) and Paclitaxel (PTX) (Taxol®, BMS) (5 mg/Kg) diluted with phosphate-buffered saline (PBS) were administered via intraperitoneal injection (i.p.). The dose was extrapolated to human equivalent dose (HED). Metronomic Chemotherapy was weekly administered one day before the vaccine administration until the end of the experiment. An anti-mouse PD-1 MAb (BioXCell, West Lebanon, NH USA) was used as checkpoint inhibitor (CI) and administered via intraperitoneal injection (i.p.) at a dose of 100 μg.
Preventive experimental setting was performed as follow: C57BL/6 mice were immunized once a week for 4 weeks by subcutaneous administration (s.c.) with WT 100ug or a mix of equimolar ratio of heteroclitic peptides (100 ug tot) formulated in 50ug PolyI:C. […]

IFN-γ secreting T cells [1] = assay: IFN-γ ELISpot on PBMCs, B16 experimental group; format: cell-based, C57BL/6 mice; conditions: for vaccine-specific IFN-γ immune response: PBMC pools re-stimulated with 10 ug/ml single peptides; for cross-reactivity with the wt: PBMC pools, IFN-γ ELISpot
Protocol: (§5) ELISPOT was performed according to BD Biosciences manufacturer instructions (BD ELISPOT Mouse IFN-γ ELISPOT Set cod. 551,083). 5 × 10^5 splenocytes or 2 × 10^5 PBMCs from pooled samples were counted, plated in each well and stimulated with 10ug/ml of single peptides used for the immunization and incubated for 24-26 h. As negative and positive control, peptide diluents PBS and 5ug/ml of phorbol myristate acetate (PMA, Sigma-Aldrich) were used respectively. Plates were read with an AID EliSpot Reader Systems (AID GmbH, Strassberg, Germany). The results were calculated as spot forming counts as a mean of a duplicate count from the specific antigen stimulation minus the negative control.
(§6) Fig. 5 Immunological evaluation in the short-term immunization. Blood samples were drawn during the experiment from retro-orbital veins and PBMCs were isolated. Interferon-γ (IFN-γ) secreting T cells were evaluated in vitro after O/N re-stimulation with individual peptides. Pool of samples were used for each experimental groups. A and B B16 group; C and D TC1 group. SFU IFN-γ spot forming units
as §6, with “7” for “5”, “long-term” for “short-term”, “A–C” for “A and B”, “D–F” for “C and D”, “WT NEG animals in the WT group with no sign of tumor growth, HET NEG animals in the Heteroclitic group with no sign of tumor growth” for “SFU IFN-γ spot forming units”

H-2 Db molecule = H-2 Db molecule (Mus musculus, UniProt P01899); assay: Peptide binding to H-2 Db on TAP-deficient RMA-S cells (flow cytometry); format: cell-based, murine; conditions: RMA-S cells loaded with sub-optimal 1 μM peptide, mean fluorescence intensity
Protocol: In order to experimentally confirm the binding and stability of heteroclitic peptides to H-2 Db molecule, the H-2 Db positive RMA-S cell line was loaded with a sub-optimal concentration of 1 μM of peptides.
Supplementary file 12967_2021_3194_MOESM1_ESM.pptx: Additional file 1: Fig. S1. Predicted affinity of wt and hPep peptides. The affinity to H2-Db were predicted by NetMHCpan 4.1 for wt and heteroclitic peptides. The affinity (Aff) values are expressed in nanomolarity (nM). The selected hPep peptides are indicated for both E7 and Trp2 peptides. Fig. S2. Experimental affinity of wt and hPep peptides. Binding to H2-Db molecule was assessed in TAP-deficient RMA-S cells loaded with the indicated peptides. Mean fluorescence intensity at flow cytometer indicates binding levels of peptides to HLA molecules. Fig. S3. Comparison of short-term and long-term immunization. The curve of tumor growth in the short-term and long-term immunization experiments for the B16 (A) and TC1 (B) is indicated for each individual animal. The Kaplan-Meyer curves for the B16 (C) and TC1 (D) is indicated.

[2] = system: TC-1 tumor cells expressing HPV16 E7 protein; assay: Preventive immunization and TC1 tumor challenge; format: in vivo, C57BL/6 mice
Protocol: as §1, §2, §3, §4
Preventive experimental setting was performed as follow: C57BL/6 mice were immunized once a week for 4 weeks by subcutaneous administration (s.c.) with WT 100ug or a mix of equimolar ratio of heteroclitic peptides (100 ug tot) formulated in 50ug PolyI:C. At the end of the immunization protocol, a group of animals were implanted with of B16F10 or TC1 cell lines (short-term memory group). In parallel, a second group was left for 2 months without any further treatment before implantation of the same number of cells (long-term memory group). Immunizations were performed in combination with metronomic chemotherapy (MCT) and CI [24–26]. One group was treated only with MCT and CI (MCT + CI group). Control mice were treated with endotoxin-free phosphate-buffered saline (PBS). At the time of sacrifice, whole blood was collected by puncture of the sinus retro-orbital vein prior analgesia with oxybuprocaine chlorhydrate (Fig. 1).
Animals were immunized in a preventative setting with either the wt or the heteroclitic E7 and Trp2 peptides. At the end of the full vaccination protocol, animals were challenged with 5 × 10^5 TC1 or 1 × 10^4 B16 tumor cells, respectively.
In order to assess the anti-tumor efficacy of the long-term memory induced by the vaccination, animals were left free of active immunization for 2 months. Animals were then challenged with 5 × 10^5 TC1 or 1 × 10^4 B16 tumor cells, respectively. […] Similarly, in the TC1 model, the long-term immunity was unable to control tumor growth as for the short-term immune response. […]

IFN-γ secreting T cells [3] = assay: IFN-γ ELISpot on PBMCs, TC1 experimental group; format: cell-based, C57BL/6 mice; conditions: PBMC pools re-stimulated with 10 ug/ml single peptides
Protocol: as §5, §6
Fig. 7 Immunological evaluation in the long-term immunization. Blood samples were drawn during the experiment from retro-orbital veins and PBMCs were isolated. Interferon-γ (IFN-γ) secreting T cells were evaluated in vitro after O/N re-stimulation with individual peptides. […]

[4] = long-term: TC1 challenge 2 months after vaccination

Sequence of H-2 Db molecule (P01899 whole entry, looked up): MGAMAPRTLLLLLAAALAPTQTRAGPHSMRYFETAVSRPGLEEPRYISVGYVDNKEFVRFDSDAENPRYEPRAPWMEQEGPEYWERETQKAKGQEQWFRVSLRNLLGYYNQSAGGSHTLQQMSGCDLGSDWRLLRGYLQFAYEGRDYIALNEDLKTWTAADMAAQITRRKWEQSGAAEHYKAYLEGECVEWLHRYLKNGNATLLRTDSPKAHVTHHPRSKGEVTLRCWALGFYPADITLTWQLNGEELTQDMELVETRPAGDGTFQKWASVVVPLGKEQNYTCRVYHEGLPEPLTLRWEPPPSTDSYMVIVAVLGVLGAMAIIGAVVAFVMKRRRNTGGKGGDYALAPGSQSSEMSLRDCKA

SVYDFFVWL [WT-Trp2]
survival of animals (B16F10 cells; long-term: B16 challenge 2 months after vaccination, day 27 post-challenge): all animals in the wt group reached the threshold for euthanasia
effect on tumor growth (B16F10 cells; short-term: B16 challenge at end of vaccination): significantly delay tumor growth
animals still alive (n/N) (B16F10 cells; short-term: B16 challenge at end of vaccination, 34 days post-challenge, 100 ug peptide s.c. weekly x4 in 50 ug PolyI:C, with MCT and CI): 2/6
animals still alive / survival (B16F10 cells; short-term: B16 challenge at end of vaccination, 34 days post-challenge, with PolyI:C, MCT and CI): 33.3% and 33%
vaccine-specific IFN-γ immune response (IFN-γ secreting T cells [1]; long-term setting): strong and comparable
vaccine-specific IFN-γ immune response (IFN-γ secreting T cells [1]; short-term setting): strong and comparable

RAHANIVTF [A4-E7, heteroclitic E7 peptide, Y4 to A substitution]
binding to the H2-Db molecule relative to wt (H-2 Db molecule): equivalent or higher than the wt

SVCDFFVWL [C3-Trp2, heteroclitic Trp2 peptide, Y3 to C substitution]
binding to the H2-Db molecule relative to wt (H-2 Db molecule): equivalent binding

RAHYHIVTF [H5-E7, heteroclitic E7 peptide, N5 to H substitution]
binding to the H2-Db molecule relative to wt (H-2 Db molecule): complete loss of binding

SVYAFFVWL [A4-Trp2, heteroclitic Trp2 peptide, D4 to A substitution]
vaccine-specific IFN-γ immune response (IFN-γ secreting T cells [1]; long-term setting): immunodominant
cross-reactivity with the wt (IFN-γ secreting T cells [1]; long-term setting): low cross-reactivity
vaccine-specific IFN-γ immune response (IFN-γ secreting T cells [1]; short-term setting): immunodominant
cross-reactivity with the wt (IFN-γ secreting T cells [1]; short-term setting): low cross-reactivity
binding to the H2-Db molecule relative to wt (H-2 Db molecule): equivalent binding

RAHYNIVTF [WT-E7]
animals still alive (n/N) [2, 4]: 3/7
tumor-free animals [2, 4]: 1
effect on tumor growth ([2]; long-term: TC1 challenge 2 months after vaccination, compared to controls): significantly delayed
animals showing late tumor growth ([2]; short-term TC1, growth at day 42 and day 51 post-challenge, follow up to day 60, data not shown): two animals
survival ([2]; short-term: TC1 challenge at end of vaccination): 100%
effect on tumor growth ([2]; short-term: TC1 challenge at end of vaccination, up to day 34): completely inhibit the tumor growth

RAIYNIVTF [I3-E7, heteroclitic E7 peptide, H3 to I substitution]
vaccine-specific IFN-γ immune response (IFN-γ secreting T cells [3]; long-term setting): immunodominant
vaccine-specific IFN-γ immune response (IFN-γ secreting T cells [3]; short-term setting): immunodominant
binding to the H2-Db molecule relative to wt (H-2 Db molecule): equivalent or higher than the wt

SVYDNFVWL [N5-Trp2, heteroclitic Trp2 peptide, F5 to N substitution]
binding to the H2-Db molecule relative to wt (H-2 Db molecule): much better than the wt
